Experiments:
[1] = test system: co-cultures of tumor cells-immune/inflammatory cells (leukocytes); test: Inhibition/survival in co-cultures of primary human tumor cells and leukocytes; format: cell-based; settings: SP + antagonist
Description: To check that the interaction between the human primary tumor cells with human immune/inflammatory (polymorphonuclear and mononuclear leukocytes) cells, promotes the survival of both types of cells, cultures were carried out with sets of immune/inflammatory cells (mono and polymorphonuclear leukocytes) with tumor cells obtained directly from human primary tumors of patients.
The leukocytes were obtained from centrifugation of blood from the same patient. The leukocytes were cultured in fresh plasma from the same patient, in order to build a model similar to human physiology.

[2] = test system: macrophages in co-culture with cells isolated from primary human tumors; test: Marker expression (IHC) in macrophages co-cultured with primary human tumor cells (colon, breast, ovarian, lung carcinoma, melanoma); format: cell-based; settings: SP + antagonist;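 also: macrophages came from pleural or peritoneal washings of the patient who also supplied the tumor cells, and both were co-cultured on fresh blood plasma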
Description: To check that the interaction of tumor cells obtained directly from primary human immune cell/inflammatory (macrophages) cells, obtained from the patient stimulate secretion of substances by these macrophages recognized as important in survival of both cell types and in the progression of tumor cells, co-cultures were performed on fresh blood plasma, immune cell/inflammatory (macrophages) with tumor cells derived from primary tumors. All obtained from the same patient, to build an experimental model similar to human physiology.
Macrophages were obtained from washing or pleural or peritoneal from the same patient from which the primary tumor cells were obtained in each case.

Row | SMILES | survival/proliferation in co-cultures of tumor cells-leukocytes (in words) [1] | expression of markers in macrophages co-cultured with primary tumor cells (in words) [2]
1 | COc1ccccc1CN[C@H]1C2CCN(CC2)[C@H]1C(c1ccccc1)c1ccccc1 [CP-96345] | same results | same results
2 | COc1ccccc1CN[C@H]1CCCN[C@H]1c1ccccc1 [CP-100263] | same results | same results
3 | Ic1ccccc1CNC1C2CCN(CC2)C1C(c1ccccc1)c1ccccc1.O=C(O)C(=O)O [L-703,606, cis-2-(Diphenylmethyl)-N-[(2-iodophenyl)methyl]-1-azabicyclo [2.2.2]octan-3-amine oxalate salt] | same results | same results
4 | CC(=O)N[C@@H](Cc1c[nH]c2ccccc12)C(=O)OCc1cc(C(F)(F)F)cc(C(F)(F)F)c1 [L-732,138, N-Acetyl-L-tryptophan 3,5-bis (trifluoromethyl)benzyl ester] | same results | same results
5 | Cl.FC(F)(F)c1cc(CO[C@H]2CCCN[C@H]2c2ccccc2)cc(C(F)(F)F)c1 [L-733,060, (2S,3S)-3-[(3,5-bis (Trifluoromethyl)phenyl)methoxy]-2-phenylpiperidine hydrochloride] | same results | same results
6 | C[C@@H](O[C@H]1OCCN(Cc2n[nH]nc2CN(C)C)[C@H]1c1ccc(F)cc1)c1cc(C(F)(F)F)cc(C(F)(F)F)c1.Cl [L-760735] | same results | same results
7 | C#C[C@]1(O)CC[C@H]2[C@@H]3CCC4=Cc5nc6nc7ccccc7n6cc5C[C@]4(C)[C@H]3CC[C@@]21C [WIN 62,577] | same results | same results
8 | C#C[C@]1(O)CC[C@H]2[C@@H]3CC[C@H]4Cc5nc6nc7ccccc7n6cc5C[C@]4(C)[C@H]3CC[C@@]21C [WIN 51708] | same results | same results

— US20180071317A1, “USE OF AGENTS THAT ALTER THE PERITUMORAL ENVIRONMENT FOR THE TREATMENT OF CANCER” (SERVICIO ANDALUZ DE SALUD, priority 2011, published 2018)
